This is an account of results in patent publication EP4640052A1 (BASF SE, priority 2024, dated 2025).

Several values for one entry are separate records, joined by “and”; a condition that tells them apart may be missing. Identical values can stand only once. Like-named read-outs stand apart in the source and are kept apart here.

The test system of assay [1] is Phakopsora pachyrhizi. Kind of assay: Green house use example 13: curative control of soybean rust on soybeans (PHAKPA F129L K4). Type of assay: in vivo.
Assay [2] concerns Pyricularia oryzae (PYRIOR). Kind of assay: microbe, parasite or virus in culture. Type of assay: cell-based. The settings on record: for inhibition of growth at 0.016 ppm / inhibition of growth at 0.063 ppm: Pyricularia oryzae, 168 h, read-out: Observed efficacy; for Observed efficacy: single active.
Assay [3] concerns Sclerotinia sclerotiorum (SCLESC). The assay can be described thus: microbe, parasite or virus in culture. Type of assay: cell-based.
The test system of assay [4] is Alternaria solani (ALTESO). The assay can be described thus: microbe, parasite or virus in culture. Type of assay: cell-based. The conditions noted are these: Alternaria solani, 168 h, read-out: Observed efficacy.
The subject of assay [5] is Blumeria graminis f. sp. tritici. The settings on record: in vivo.
For assay [6], the system named is Phakopsora pachyrhizi. The assay can be described thus: Green house use example 14: protective control of soybean rust on soybeans (PHAKPA F129L P2). Type of assay: in vivo. The settings on record: single compound, 0.5 ppm.
For assay [7], the system named is Septoria tritici (SEPTTR). Kind of assay: microbe, parasite or virus in culture. Type of assay: cell-based. The conditions noted are these: for inhibition of growth at 0.063 ppm / inhibition of growth at 0.25 ppm / inhibition of growth at 1 ppm: Zymoseptoria tritici, 168 h, read-out: Observed efficacy.
In assay [8] the test system is Puccinia triticina (syn. P. recondita). The assay can be described thus: Green house use example 9: curative control of brown rust on wheat (PUCCRT K4). Type of assay: in vivo.
Assay [9] concerns Phakopsora pachyrhizi. The settings on record: in vivo.
Assay [10] deals with Pyrenophora teres (PYRNTE), Qol resistant (F129L). Kind of assay: microbe, parasite or virus in culture. Type of assay: cell-based.
In a further assay the test system is Monilinia sp. (MONISP). The assay can be described thus: microbe, parasite or virus in culture. Type of assay: cell-based. The settings on record: Monilinia, 168 h, read-out: Observed efficacy.
For assay [11], the system named is Cercospora sojina (CERCSO). Type of assay: cell-based.
Assay [12] concerns Puccinia triticina (syn. P. recondita). Kind of assay: Green house use example 10: preventative control of brown rust on wheat (PUCCRT P10). Type of assay: in vivo. The conditions noted are these: wheat, sprayed 10 days before inoculation; single active, 1 ppm.
Assay [13] relates to Blumeria graminis f. sp. tritici. The assay can be described thus: Green house use example 11: control of powdery mildew on wheat, sprayed 2 days after inoculation (ERYSGT K2). The settings on record: G143A strain, single active. Type of assay: in vivo.
For assay [14], the system named is Corynespora cassiicola (CORYCA), Qol resistant (G143A); SDHI resistant (N75S in SdHC). Type of assay: cell-based.
Where [15] appears, read: Trial 1, single compound, 4 ppm.
Setting [16] is: Trial 3, single compound, 4 ppm.
Where [17] appears, read: Sclerotinia sclerotiorum, 168 h, read-out: Observed efficacy.
Setting [18] is: Trial 1, single compound, 1 ppm.
Setting [19] is: Trial 2, single compound, 1 ppm.
Setting [20] is: Pyrenophora teres, 168 h, read-out: Observed efficacy.

As for `CO/C=C(/C(=O)OC)c1cccc(Cl)c1CO/N=C(\COC)c1ccccc1` [I.1, Methyl-(E)-2-[3-chloro-2-[[(Z)-(2-methoxy-1-phenyl-ethylidene)amino]oxymethyl]-phenyl]-3-methoxy-prop-2-enoate], the Observed efficacy with Phakopsora pachyrhizi [1] (setting [15]) is reported as 37; in the assay with Phakopsora pachyrhizi [1] (setting [16]), 71; in assay [5], 0; in the assay with Phakopsora pachyrhizi [6] it was 80; in [8] (setting [18]) it was 3; in assay [8] (setting [15]), 58. Further, the Observed efficacy is reported as 0 in assay [8] (setting [19]) and 61 with Phakopsora pachyrhizi [9]. The inhibition of growth at 0.016 ppm in assay [2] stood at 25%; in assay [4], 12%; in [10] (setting [20]), 14%. The inhibition of growth at 0.063 ppm in assay [2] came out at 64%; in assay [3] (setting [17]) it was 2%; in assay [4], 29%; in [7] it was 0%; in [10] (setting [20]), 48%. Also, the inhibition of growth at 0.25 ppm worked out at 45% in [7] and 72% in assay [10] (setting [20]).

With `CO/C=C(/C(=O)OC)c1cccc(C)c1CO/N=C(\COC)c1ccc(F)cc1F` [I.7, Methyl (E)-2-[2-[[(Z)-[1-(2,4-difluorophenyl)-2-methoxy-ethylidene]amino]oxymethyl]-3-methyl-phenyl]-3-methoxy-prop-2-enoate], the Observed efficacy was 41 in the assay on Phakopsora pachyrhizi [1] (setting [15]); 74 in the assay on Phakopsora pachyrhizi [1] (setting [16]); 85 in the assay with Phakopsora pachyrhizi [6]; 2% and 0% in [11]; 9 in assay [8] (setting [18]); 67 in assay [8] (setting [15]). This compound had an Observed efficacy in assay [12] of 19. Besides, the inhibition of growth at 0.016 ppm in assay [2] turned out to be 27%; in assay [3] (setting [17]) it was 3%; in assay [4], 2%; in assay [10] (setting [20]), 19%. Besides, the inhibition of growth at 0.063 ppm amounted to 66% in assay [2]; 2% in assay [3] (setting [17]); 32% in [4]; 45% in the assay with Monilinia sp. (MONISP); 0% in assay [7]; 46% in assay [10] (setting [20]). Further, the inhibition of growth at 0.25 ppm amounted to 20% in assay [3] (setting [17]), 55% in assay [7] and 76% in assay [10] (setting [20]). Besides, the inhibition of growth at 0.004 ppm in [4] was 8%.

In the case of `CO/C=C(/C(=O)OC)c1cccc(Cl)c1CO/N=C(\COC)c1c(F)cc(F)cc1F` [I.9, Methyl-(E)-2-[3-chloro-2-[[(Z)-[2-methoxy-1-(2,4,6-trifluorophenyl)ethylidene]-amino]oxymethyl]phenyl]-3-methoxy-prop-2-enoate], the Observed efficacy with Phakopsora pachyrhizi [1] (setting [15]) turned out to be 12; in the assay with Phakopsora pachyrhizi [1] (setting [16]), 3; in the assay on Phakopsora pachyrhizi [6], 59; in assay [8] (setting [19]) it was 0; in [8] (Trial 2, single compound, 2 ppm), 0; with Phakopsora pachyrhizi [9] it was 60. Also, the inhibition of growth at 0.063 ppm in assay [2] is 32%; in assay [3] (setting [17]), 11%; in assay [4], 3%; in the assay on Monilinia sp. (MONISP), 42%; in assay [7], 0%; in assay [10] (setting [20]), 44%. For the same compound, the inhibition of growth at 1 ppm in [3] (setting [17]) came to 50%; in assay [7], 60%. In assay [4], the inhibition of growth at 0.004 ppm amounted to 1%. Further, the inhibition of growth at 0.001 ppm with Monilinia sp. (MONISP) stood at 17%. For the same compound, the inhibition of growth at 0.25 ppm in the assay with Monilinia sp. (MONISP) worked out at 76%; in assay [7], 6%; in assay [10] (setting [20]), 74%. For the same compound, the inhibition of growth at 0.016 ppm in assay [10] (setting [20]) is 7%.

`CC(Cc1ccc(C(C)(C)C)cc1)CN1C[C@@H](C)O[C@@H](C)C1` (stereo partly shown) [fenpropimorph, reference compound]: the Observed efficacy with Phakopsora pachyrhizi [1] (setting [15]) turned out to be 8; with Phakopsora pachyrhizi [1] (Trial 1, single compound, 12 ppm), 13; in the assay on Phakopsora pachyrhizi [1] (Trial 2, single compound, 4 ppm), 6; in the assay on Phakopsora pachyrhizi [1] (Trial 2, single compound, 16 ppm), 11; in assay [5], 16; in assay [13] (16 ppm) it was 32. The Observed efficacy in assay [13] (63 ppm) worked out at 35; in assay [11], 3%; with Phakopsora pachyrhizi [9], 0. The values for the inhibition of growth at 0.016 ppm (in assay [2]; with Monilinia sp. (MONISP)) were 0% and 2%, respectively. Besides, the inhibition of growth at 1 ppm in [3] (setting [17]) amounted to 39%; in assay [4], 61%; in assay [7], 44%; in assay [10] (setting [20]) it was 33%. Besides, the inhibition of growth at 4 ppm in assay [3] (setting [17]) worked out at 65%. The inhibition of growth at 0.25 ppm in assay [4] was determined as 18%; in assay [7], 0%. Moreover, the inhibition of growth at 0.063 ppm in assay [7] was 0%.

On to `COc1ccnc(C(=O)N[C@@H](C)C(=O)O[C@@H](C)C(c2ccc(F)cc2)c2ccc(F)cc2)c1OC(C)=O` [florylpicoxamid, reference compound], for which the Observed efficacy in [2] (0.016 ppm) was 66%; in assay [14], 13%; in assay [11], 16%; in assay [10] it was 39 and 21.

Turning to `Cc1nc2c(F)c(F)ccc2cc1Oc1cccc(F)c1C(C)(C)O` [ipflufenoquin, reference compound], the Observed efficacy in [2] (0.004 ppm) is 12%; in assay [2] (0.016 ppm) it was 15%; in [2] (0.063 ppm), 12%; in assay [3], 4 and 3; in [7] it was 48 and 41 and 26; in assay [14], 11%.
